# In patent US6905841B2, “Enzymatic substrates for detecting Pseudomonas aeruginas” (Biomerieux S.A., priority 1999, dated 2005):
# Where two headings read alike, the source gives them in different places.
# Key:
# β-alanine aminopeptidase [1] = test: Vitek 2 cards, broth with β-Alanyl p-nitroanilide; conditions: Serratia liquefaciens; 1 strain tested; read after 19 hours
# β-alanine aminopeptidase [2] = test: Vitek 2 cards, broth with β-Alanyl p-nitroanilide; conditions: Citrobacter amalonaticus; 2 strains tested; read after 19 hours
# β-alanine aminopeptidase [3] = test: Vitek 2 cards, broth with β-Alanyl p-nitroanilide; conditions: Pseudomonas aeruginosa; 4 strains tested; read after 19 hours
# β-alanine aminopeptidase [4] = test: Vitek 2 cards, broth with β-Alanyl p-nitroanilide; conditions: Providencia stuartii; 1 strain tested; read after 19 hours
# β-alanine aminopeptidase [5] = test: Vitek 2 cards, broth with β-Alanyl p-nitroanilide; conditions: Shewanella algae; 1 strain tested; read after 19 hours
# β-alanine aminopeptidase [6] = test: Vitek 2 cards, broth with β-Alanyl p-nitroanilide; conditions: Sphingomonas paucimobilis; 2 strains tested; read after 19 hours
# β-alanine aminopeptidase [7] = test: Vitek 2 cards, broth with β-Alanyl p-nitroanilide; conditions: Moraxella non liquefaciens; 2 strains tested; read after 19 hours
# β-alanine aminopeptidase [8] = test: Vitek 2 cards, broth with β-Alanyl p-nitroanilide; conditions: Pseudomonas putida; 1 strain tested; read after 19 hours
# β-alanine aminopeptidase [9] = test: Vitek 2 cards, broth with β-Alanyl p-nitroanilide; conditions: Escherichia coli; 2 strains tested; read after 19 hours
# β-alanine aminopeptidase [10] = test: Vitek 2 cards, broth with β-Alanyl p-nitroanilide; conditions: Proteus mirabilis; 2 strains tested; read after 19 hours
# β-alanine aminopeptidase [11] = test: Vitek 2 cards, broth with β-Alanyl p-nitroanilide; type: cell-based; conditions: Myroïdes spp.; 1 strain tested; read after 19 hours
# β-alanine aminopeptidase [12] = test: Vitek 2 cards, broth with β-Alanyl p-nitroanilide; conditions: Pseudomonas stutzeri; 3 strains tested; read after 19 hours
# β-alanine aminopeptidase [13] = test: Vitek 2 cards, broth with β-Alanyl p-nitroanilide; conditions: Acinetobacter baumannii; 2 strains tested; read after 19 hours
# β-alanine aminopeptidase [14] = test: Vitek 2 cards, broth with β-Alanyl p-nitroanilide; conditions: Citrobacter koseri; 1 strain tested; read after 19 hours
# β-alanine aminopeptidase [15] = test: Vitek 2 cards, broth with β-Alanyl p-nitroanilide; conditions: Proteus vulgaris; 1 strain tested; read after 19 hours
# β-alanine aminopeptidase [16] = test: Vitek 2 cards, broth with β-Alanyl p-nitroanilide; conditions: Chryseobacterium meningosepticum; 1 strain tested; read after 19 hours
# β-alanine aminopeptidase [17] = test: Vitek 2 cards, broth with β-Alanyl p-nitroanilide; conditions: Citrobacter freundii; 2 strains tested; read after 19 hours
# β-alanine aminopeptidase [18] = test: Vitek 2 cards, broth with β-Alanyl p-nitroanilide; conditions: Stenotrophomonas maltophilia; 2 strains tested; read after 19 hours
# β-alanine aminopeptidase [19] = test: Vitek 2 cards, broth with β-Alanyl p-nitroanilide; conditions: Salmonella arizonae; 1 strain tested; read after 19 hours
# β-alanine aminopeptidase [20] = test: Vitek 2 cards, broth with β-Alanyl p-nitroanilide; conditions: Enterobacter intermedius; 1 strain tested; read after 19 hours
# β-alanine aminopeptidase [21] = test: Vitek 2 cards, broth with β-Alanyl p-nitroanilide; conditions: Burkholderia vesicularis; 1 strain tested; read after 19 hours
# β-alanine aminopeptidase [22] = test: Vitek 2 cards, broth with β-Alanyl p-nitroanilide; conditions: Serratia marcescens; 1 strain tested; read after 19 hours
# β-alanine aminopeptidase [23] = test: Vitek 2 cards, broth with β-Alanyl p-nitroanilide; conditions: Enterobacter aerogenes; 2 strains tested; read after 19 hours
# β-alanine aminopeptidase [24] = test: Vitek 2 cards, broth with β-Alanyl p-nitroanilide; conditions: Klebsiella oxytoca; 2 strains tested; read after 19 hours
# β-alanine aminopeptidase [25] = test: Vitek 2 cards, broth with β-Alanyl p-nitroanilide; conditions: Aeromonas hydrophila; 2 strains tested; read after 19 hours
# β-alanine aminopeptidase [26] = test: Vitek 2 cards, broth with β-Alanyl p-nitroanilide; conditions: Klebsiella pneumoniae; 2 strains tested; read after 19 hours
# β-alanine aminopeptidase [27] = test: Vitek 2 cards, broth with β-Alanyl p-nitroanilide; conditions: Ralstonia pickettii; 1 strain tested; read after 19 hours
# β-alanine aminopeptidase [28] = test: Vitek 2 cards, broth with β-Alanyl p-nitroanilide; conditions: Enterobacter cloacae; 2 strains tested; read after 19 hours
# β-alanine aminopeptidase [29] = test: Vitek 2 cards, broth with β-Alanyl p-nitroanilide; conditions: Vibrio vulnificus; 1 strain tested; read after 19 hours
# β-alanine aminopeptidase [30] = test: Vitek 2 cards, broth with β-Alanyl p-nitroanilide; conditions: Achromobacter xylosoxydans; 2 strains tested; read after 19 hours
# β-alanine aminopeptidase [31] = test: Vitek 2 cards, broth with β-Alanyl p-nitroanilide; conditions: Brevundimonas diminuta; 1 strain tested; read after 19 hours
# β-alanine aminopeptidase [32] = tested on: β-alanine aminopeptidase
# β-alanine aminopeptidase [33] = type: cell-based; conditions: Shigella flexneri; 10 strains tested
# β-alanine aminopeptidase [34] = tested on: β-alanine aminopeptidase; remark: listed apart in the source
# β-alanine aminopeptidase [35] = tested on: β-alanine aminopeptidase; remark: listed apart in the source
# β-alanine aminopeptidase [36] = type: cell-based; conditions: Shigella boydii; 10 strains tested
# β-alanine aminopeptidase [37] = conditions: Pseudomonas stutzeri; 10 strains tested
# β-alanine aminopeptidase [38] = conditions: Oligella urethralis; 10 strains tested
# β-alanine aminopeptidase [39] = conditions: Comamonas testoteroni; 10 strains tested
# β-alanine aminopeptidase [40] = type: cell-based, Ochrobactrum anthropi
# β-alanine aminopeptidase [41] = conditions: Chryseobacterium indologenes; 10 strains tested
# β-alanine aminopeptidase [42] = conditions: Shigella dysenteriae; 10 strains tested
# β-alanine aminopeptidase [43] = conditions: 137 strains tested
# β-alanine aminopeptidase [44] = test: Two-substrate semi-solid medium (Trypticase Soy agar), colony color; type: cell-based; conditions: agar also contains 6-Chloro-3-indolyl-β-D-glycopyranoside and 3,5-Dihydroxy-2-naphthoic acid, 35-37° C., 18-24 hours
# Experimental: The medium was poured out and inoculated as follows: • 10 dishes with pure cultures corresponding to five strains of Pseudomonas aeruginosa and five of Pseudomonas mendocina, and • 2 dishes with a mixture of two strains, one being of Pseudomonas aeruginosa and the other of Pseudomonas mendocina. The Petri dishes were incubated at 35-37° C. After 18-24 hours of incubation, the color of the colonies was recorded.
# [45] = Ralstonia pickettii, 10 strains tested
# [46] = Chromobacterium violaceum, 11 strains tested
# [47] = Pseudomonas mendocina, 10 strains tested
# [48] = Ochrobactrum anthropi, 11 strains tested
compound,measurement,setting,value
"NCCC(=O)Nc1ccc([N+](=O)[O-])cc1 [β-Alanyl-p-nitroanilide, β-Alanine p-nitroanilide]",Number of negative results,β-alanine aminopeptidase [1],0
same,Number positive results,β-alanine aminopeptidase [1],1
same,Number of negative results,β-alanine aminopeptidase [2],2
same,Number positive results,β-alanine aminopeptidase [2],0
same,Number of negative results,β-alanine aminopeptidase [3],0
same,Number positive results,β-alanine aminopeptidase [3],4
same,Number of negative results,β-alanine aminopeptidase [4],1
same,Number positive results,β-alanine aminopeptidase [4],0
same,Number of negative results,β-alanine aminopeptidase [5],1
same,Number positive results,β-alanine aminopeptidase [5],0
same,Number of negative results,β-alanine aminopeptidase [6],2
same,Number positive results,β-alanine aminopeptidase [6],0
same,Number of negative results,β-alanine aminopeptidase [7],2
same,Number positive results,β-alanine aminopeptidase [7],0
same,Number of negative results,β-alanine aminopeptidase [8],1
same,Number positive results,β-alanine aminopeptidase [8],0
same,Number of negative results,β-alanine aminopeptidase [9],2
same,Number positive results,β-alanine aminopeptidase [9],0
same,Number of negative results,β-alanine aminopeptidase [10],2
same,Number positive results,β-alanine aminopeptidase [10],0
same,Number of negative results,β-alanine aminopeptidase [11],1
same,Number positive results,β-alanine aminopeptidase [11],0
same,Number of negative results,β-alanine aminopeptidase [12],3
same,Number positive results,β-alanine aminopeptidase [12],0
same,Number of negative results,β-alanine aminopeptidase [13],2
same,Number positive results,β-alanine aminopeptidase [13],0
same,Number of negative results,β-alanine aminopeptidase [14],1
same,Number positive results,β-alanine aminopeptidase [14],0
same,Number of negative results,β-alanine aminopeptidase [15],1
same,Number positive results,β-alanine aminopeptidase [15],0
same,Number of negative results,β-alanine aminopeptidase [16],1
same,Number positive results,β-alanine aminopeptidase [16],0
same,Number of negative results,β-alanine aminopeptidase [17],2
same,Number positive results,β-alanine aminopeptidase [17],0
same,Number of negative results,β-alanine aminopeptidase [18],2
same,Number positive results,β-alanine aminopeptidase [18],0
same,Number of negative results,β-alanine aminopeptidase [19],1
same,Number positive results,β-alanine aminopeptidase [19],0
same,Number of negative results,β-alanine aminopeptidase [20],1
same,Number positive results,β-alanine aminopeptidase [20],0
same,Number of negative results,β-alanine aminopeptidase [21],1
same,Number positive results,β-alanine aminopeptidase [21],0
same,Number of negative results,β-alanine aminopeptidase [22],0
same,Number positive results,β-alanine aminopeptidase [22],1
same,Number of negative results,β-alanine aminopeptidase [23],2
same,Number positive results,β-alanine aminopeptidase [23],0
same,Number of negative results,β-alanine aminopeptidase [24],2
same,Number positive results,β-alanine aminopeptidase [24],0
same,Number of negative results,β-alanine aminopeptidase [25],2
same,Number positive results,β-alanine aminopeptidase [25],0
same,Number of negative results,β-alanine aminopeptidase [26],2
same,Number positive results,β-alanine aminopeptidase [26],0
same,Number of negative results,β-alanine aminopeptidase [27],1
same,Number positive results,β-alanine aminopeptidase [27],0
same,Number of negative results,β-alanine aminopeptidase [28],2
same,Number positive results,β-alanine aminopeptidase [28],0
same,Number of negative results,β-alanine aminopeptidase [29],1
same,Number positive results,β-alanine aminopeptidase [29],0
same,Number of negative results,β-alanine aminopeptidase [30],2
same,Number positive results,β-alanine aminopeptidase [30],0
same,Number of negative results,β-alanine aminopeptidase [31],1
same,Number positive results,β-alanine aminopeptidase [31],0
Cc1cc(=O)oc2cc(NC(=O)CCN)ccc12,percentage of positive results,β-alanine aminopeptidase [32]; Ralstonia pickettii strains,20%
same,Borderline results,β-alanine aminopeptidase [32]; [45],0
same,Number of negative results,β-alanine aminopeptidase [32]; [45],8
same,Number of positive results,β-alanine aminopeptidase [32]; [45],2
same,Borderline results,β-alanine aminopeptidase [33],0
same,Number of negative results,β-alanine aminopeptidase [33],10
same,Number of positive results,β-alanine aminopeptidase [33],0
same,percentage of positive results,β-alanine aminopeptidase [34]; Chromobacterium violaceum strains,10%
same,Borderline results,β-alanine aminopeptidase [34]; [46],1
same,Number of negative results,β-alanine aminopeptidase [34]; [46],9
same,Number of positive results,β-alanine aminopeptidase [34]; [46],1
same,percentage of positive results,β-alanine aminopeptidase [35]; Pseudomonas mendocina strains,100%
same,Borderline results,β-alanine aminopeptidase [35]; [47],0
same,Number of negative results,β-alanine aminopeptidase [35]; [47],0
same,Number of positive results,β-alanine aminopeptidase [35]; [47],10
same,Borderline results,β-alanine aminopeptidase [36],0
same,Number of negative results,β-alanine aminopeptidase [36],10
same,Number of positive results,β-alanine aminopeptidase [36],0
same,Borderline results,β-alanine aminopeptidase [37],0
same,Number of negative results,β-alanine aminopeptidase [37],10
same,Number of positive results,β-alanine aminopeptidase [37],0
same,Borderline results,β-alanine aminopeptidase [38],0
same,Number of negative results,β-alanine aminopeptidase [38],10
same,Number of positive results,β-alanine aminopeptidase [38],0
same,Borderline results,β-alanine aminopeptidase [39],0
same,Number of negative results,β-alanine aminopeptidase [39],10
same,Number of positive results,β-alanine aminopeptidase [39],0
same,percentage of positive results,β-alanine aminopeptidase [40]; Ochrobactrum anthropi strains,100%
same,Borderline results,β-alanine aminopeptidase [40]; [48],0
same,Number of negative results,β-alanine aminopeptidase [40]; [48],0
same,Number of positive results,β-alanine aminopeptidase [40]; [48],11
same,Borderline results,β-alanine aminopeptidase [41],0
same,Number of negative results,β-alanine aminopeptidase [41],10
same,Number of positive results,β-alanine aminopeptidase [41],0
same,Borderline results,β-alanine aminopeptidase [42],0
same,Number of negative results,β-alanine aminopeptidase [42],10
same,Number of positive results,β-alanine aminopeptidase [42],0
same,percentage of positive results,β-alanine aminopeptidase [43]; Pseudomonas aeruginosa strains,97.8%
same,Borderline results,β-alanine aminopeptidase [43]; Pseudomonas aeruginosa,1
same,Number of negative results,β-alanine aminopeptidase [43]; Pseudomonas aeruginosa,2
same,Number of positive results,β-alanine aminopeptidase [43]; Pseudomonas aeruginosa,134
"CNc1ccc(N(C)C(=O)CCN)cc1 [β-Alanyl-N,N′-dimethyl-p-phenylene-diamine]",color of the colonies,β-alanine aminopeptidase [44]; Pseudomonas aeruginosa,Blue colonies with a blue halo
same,color of the colonies,β-alanine aminopeptidase [44]; Pseudomonas mendocina,purple colonies with a blue halo
